Values of other authors, collected in patent US20080102081A1, “Preparations and applications for treatment of high cholesterol levels” (priority 2006, published 2008).

Tests used:
[1] = denominator of prescription volume
[2] = clinical trials, patients at lower dosages

| elevation of hepatic enzyme activity [2] [%] | SMILES | fatal rhabdomyolysis rate [1] |
| --- | --- | --- |
|  | COCc1c(C(C)C)nc(C(C)C)c(/C=C/[C@@H](O)C[C@@H](O)CC(=O)O)c1-c1ccc(F)cc1 [Cerivastatin] | 3.16 fatal cases/million prescriptions |
| 0.7 | CC(C)c1c(C(=O)Nc2ccccc2)c(-c2ccccc2)c(-c2ccc(F)cc2)n1CC[C@@H](O)C[C@@H](O)CC(=O)O [Atorvastatin] |  |
